Results published in patent US7166597B2, “Fused pyrazole derivatives being protein kinase inhibitors” (Glaxo Group Limited, priority 2000, dated 2007).
Read-outs that look alike come from different tables or passages of the source.

Assays:
p38 kinase = biological target: T1, p38 kinase (Homo sapiens, UniProt Q16539); experiment: p38 Kinase Assay; type: biochemical
T1 construct: GST (N); made in house; host or cells: E. coli
Procedure: The peptide substrate used in the p38 assay was biotin-IPTSPITTTYFFFRRR-amide. The p38 and MEK6 proteins were purified to homogeneity from E. coli expression systems. The fusion proteins were tagged at the N-terminus with Glutathione-S-Transferase (GST). The maximum activation was achieved by incubating 20 uL of a reaction mixture of 30 nM MEK6 protein and 120 nM p38 protein in the presence of 1.5 uM peptide and 10 mM Mg (CH3CO2)2 in 100 mM HEPES7 pH 7.5, added to 15 uL of a mixture of 1.5 uM ATP with 0.08 uCi [g-^33P]ATP, with or without 15 uL of inhibitor in 6% DMSO. The controls were reactions in the presence (negative controls) or absence (positive controls) of 50 mM EDTA. Reactions were allowed to proceed for 60 min at room temperature and quenched with addition of 50 uL of 250 mM EDTA and mixed with 150 uL of Streptavidin SPA beads (Amersham) to 0.5 mg/reaction. The Dynatech Microfluor white U-bottom plates were sealed and the beads were allowed to settle overnight. The plates were counted in a Packard TopCount for 60 seconds. IC50 values were obtained by fitting raw data to % I=100*(1−(I−C2)/(C1−C2)), where I was […], C1 was positive control, and C2 was negative control.

[1] = tested on: serum TNFα elevation in mice treated with lipopolysaccharide (LPS); experiment: Murine LPS-Stimulated Serum TNF Inhibition; type: in vivo; settings: Mus musculus, 1.5 h, dose 30 mpk, read-out: % inh. (dose): % inhibition of murine TNF production in mice following an LPS challenge
Procedure: Murine LPS—Stimulated Serum TNF Inhibition Protocol
The potency of compounds of the invention as inhibitors of serum TNFα elevation in mice treated with lipopolysaccharide (LPS) was determined as follows; a) for subcutaneous (s.c.) administration, test compound was dissolved in DMSO and added to a mixture of 0.9% sodium chloride solution and 30% Trappsol HPB-20 (Cyclodextrin Technology Development Inc., Gainesville, Fla. USA) for a final DMSO concentration of 1%. The dosing solution was sonicated briefly and 0.2 mL was injected subcutaneously 10 min prior to LPS injection; b) for per oral (p.o.) administration, test compounds were formulated in 0.2 mL of PBS and 0.1% Tween 80 and given orally via gavage 10 min prior to LPS administration.
C3/hen female mice were injected intraperitoneally with 200 μg/kg LPS (Escherichia coil, Serotype 0111:B4, Sigma Chemical Co, St. Louis, Mo.) in PBS and sacrificed 90 min later by CO2 asphyxiation. Blood was immediately taken from the caudal vena cava and plasma prepared and frozen at −80° C. Plasma concentrations of TNF were measured by ELISA (Genzyme Co., Cambridge Mass.).

[2] = tested on: TNF release from human peripheral blood mononuclear cells (PBMNC); experiment: Cell Based Assay for Cytokines Production in PBMNC (TNF release after LPS); settings: PBMC, read-out: TNF/PBMNC (inhibition of TNF release from human PBMNC following stimulation with LPS, IC50)
Procedure: Cell Based Assay for Cytokines Production in PBMNC
Human peripheral blood mononuclear cells were isolated from heparinized blood by LSM (Organon Teknika) from volunteer donors. Purified human peripheral blood mononuclear cells were then suspended at a concentration of 2×10^6 cells/ml in RPMI 1640 medium supplemented with 10% heat-inactivated FBS and 1% antibiotics. Aliquots of 100 μl (2×10^5 cells) were added to 96-well microliter plates. Test compounds at […] dose ranges (final-DMSO concentration in culture medium was 0.1%) were then added to the cells for 10–15 minutes before the addition of lipopolysaccharide (1 ng/ml). After incubation at 37° C. in a 5% CO2 incubator for 18–20 h, cell free supernatants were collected by centrifugation at 800 g. The supernatant was then assayed for the amount of TNFα and IL-1β by using Quantikine immunoassay kits developed by R&D Systems (Minneapolis, Minn.).

[3] = Cell Based Efficacy (MTT Assay), cytotoxicity toward HFF; settings: human, HFF cells (human foreskin fibroblasts), Table 7, HFF cell line
Procedure: Cell Based Efficacy (MTT Assay)
The potency of compounds of the invention are tested for their ability to inhibit cell proliferation and cell viability. The metabolic conversion of 3-(4,5-dimethylthiazol-2-yl)-2,5-diphenyltetrazolium bromide (MTT, Sigma #M2128) to a reduced form was a commonly used measure of cellular viability. Following was the procedure:
Cells are maintained in 75 cm^2 tissue culture flasks until ready for use. The cells are grown and plated for the assay in Dulbecco's modified Eagle's media containing 10% fetal bovine serum. For example, the following cell lines can be used: a) human foreskin fibroblasts (HFF), b) HT29 (human colon carcinoma cell line), c) MDA-MB468 (human breast carcinoma cell line), d) RKO (human colon adenocarcinoma cell line), e) SW620 (human colon carcinoma cell line), f) A549 (human lung carcinoma cell line), and g) MIA PACA (human pancreatic carcinoma cell line). Cells are maintained at 37° C. in 10% CO2, 90% humidified air. Cells are plated in 96-well tissue culture plates at the densities listed below (Table 6). 100 μL of cell suspension was added to each well of the 96-well plate except the top row of the plate which contains no cells and serves as a reference for the spectrophotometer.
Cells are incubated overnight in Dulbecco's modified Eagle's media containing 10% fetal bovine serum at 37° C. in 10% CO2, 90% humidified air prior to dosing. Cells are dosed in 10 sequential 3-fold dilutions starting at 30 μM depending upon the solubility of the compound. Compounds with solubilities of less than 30 μM are dosed at the highest soluble concentration. Stock solutions of compounds are made in 100% dimethyl sulfoxide (DMSO). Stock solutions are diluted in Dulbecco's modified Eagle's media containing 100 ug/mL gentamicin and 0.3 to 0.6% DMSO at the twice the highest concentration to be placed on the cells. If compounds have been dissolved in DMSO the final concentration of DMSO on the cells was kept below 0.3%. 3-fold serial dilutions are performed on each compound to prepare 10 concentrations of the compound for dosing. 100 μL of diluted compound was added to the 100 μL of media currently on the dish. For each concentration of compound, 2–4 replicate wells are prepared.
Cells are returned to incubator and allowed to proliferate in the presence of compound for 72 h before addition of MTT. MTT was prepared in phosphate buffered saline (Irvine Scientific #9240) at a concentration of 2 mg/mL. 50 μL per well of MTT solution was added to the 200 μL of media to yield a final concentration of 0.4 mg/mL and plates are returned to the incubator for 4 h. After 4 h incubation the media, compound and MTT mixture was aspirated from the plates and 100 μL of 100% DMSO was added to each well in addition to 25 uL of Sorenson's Buffer (0.1M glycine, 0.1M NaCl, pH 10.5). Quantitation of metabolic reduction of MTT in each plate was performed by reading optical density at 570 nm wavelength on a Molecular Devices UV max microplate reader. Growth inhibition curves and 50% inhibitory concentrations are determined using Microsoft Excel.

[4] = biological target: T2, JNK3 kinase (Jnk-3alpha-2) (Homo sapiens, UniProt P53779); experiment: JNK3 Kinase Assay; type: biochemical; settings: Table 8; read-out: JNK3 kinase (inhibition of JNK3 kinase, IC50)
T2 construct: Jnk-3alpha-2 (as a truncated construct, residues 39 to 224) was expressed in E. coli as a GST fusion protein; Following purification the GST portion was removed by thrombin cleavage; fused on or other part: An N-terminal GST tag was used for expression and removed by thrombin cleavage before the assay
Procedure: JNK3 Kinase Assay Jnk-3alpha-2 (as a truncated construct, residues 39 to 224) was expressed in E. coli as a GST fusion protein. Following purification the GST portion was removed by thrombin cleavage. The enzyme was stored at −80° C. Substrate c-Jun was expressed as a GST fusion protein including a signal peptide (biotinylation site) in E. coli. Following purification the substrate was biotinylated on a specific lysine in the signal peptide using biotin ligase. Prior to assay Jnk-3 was pre-activated by incubation with MgATP. The enzyme (10 nM) was screened in 40 mM HEPES (pH 7.4), 150 mM NaCl, 20 mM glycerophosphate, 1 mM DTT, 0.2 mM vanadate, 200 nM biotin-c-Jun, 5 mM MgCl2 and 10 uM ATP. Inhibitors were added over a conc range of from 0 to 10 uM in DMSO (fc 3%). The reaction was stopped by the addition of 25 mM EDTA. Phospho-c-Jun was detected using homogeneous time resolved fluorescence (HTRF) with a Eu-labelled antiphosphoserine (Serine 73) and streptavidin APC.

[5] = Table 7, compounds wherein Z is CH, read-out: P38 kinase (inhibition of p38 kinase, IC50)
[6] = Table 8, compounds wherein Z is N, read-out: p38 kinase (inhibition of p38 kinase, IC50)

T2 sequence (P53779 39-402 limits assumed): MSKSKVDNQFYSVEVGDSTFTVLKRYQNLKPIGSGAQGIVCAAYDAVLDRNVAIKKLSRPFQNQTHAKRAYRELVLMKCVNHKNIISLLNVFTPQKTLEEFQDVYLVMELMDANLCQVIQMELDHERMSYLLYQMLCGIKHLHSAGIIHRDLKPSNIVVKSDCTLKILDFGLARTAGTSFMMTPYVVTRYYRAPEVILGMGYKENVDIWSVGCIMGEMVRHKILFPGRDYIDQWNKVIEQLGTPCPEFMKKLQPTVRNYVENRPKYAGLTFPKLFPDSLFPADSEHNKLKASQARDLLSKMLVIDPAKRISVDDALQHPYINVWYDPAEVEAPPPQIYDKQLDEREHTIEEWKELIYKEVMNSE
T1 sequence (Q16539 whole entry): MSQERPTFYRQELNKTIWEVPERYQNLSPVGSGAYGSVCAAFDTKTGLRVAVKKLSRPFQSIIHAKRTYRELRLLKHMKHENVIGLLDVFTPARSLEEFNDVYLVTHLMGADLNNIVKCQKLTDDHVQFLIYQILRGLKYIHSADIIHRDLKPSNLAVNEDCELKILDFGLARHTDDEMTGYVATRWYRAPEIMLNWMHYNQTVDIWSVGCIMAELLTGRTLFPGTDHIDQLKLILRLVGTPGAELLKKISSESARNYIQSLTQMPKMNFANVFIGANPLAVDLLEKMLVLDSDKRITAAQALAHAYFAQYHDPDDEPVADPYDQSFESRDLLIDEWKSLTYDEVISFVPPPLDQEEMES

Structure (SMILES) | IC50 (p38 kinase; [5]) [nM] | IC50 ([2]; Table 7, LPS stimulation) [nM] | IC50 (p38 kinase; [6]) [nM] | IC50 ([2]; Table 8, LPS stimulation) [nM] | IC50 [4] [nM] | inhibition in vivo at 30 mg/kg ([1]; Table 7, LPS challenge) [%] | IC50 at 72 h [3] [nM] | inhibition in vivo at 30 mg/kg ([1]; Table 8, LPS challenge) [%]
Fc1ccc(-c2nn3ccccc3c2-c2ccncc2)cc1 [Example 1, 2-(4-Fluorophenyl)-3-(4-pyridyl)-pyrazolo[1,5-a]pyridine] | < 500 | < 500 |  |  |  | 65 | > 50000 | 
COc1ccn2nc(-c3ccc(F)cc3)c(-c3ccncc3)c2c1 [Example 5, 2-(4-Fluorophenyl)-5-methoxy-3-(4-pyridinyl)pyrazolo[1,5-a]pyridine] | 500 to 5000 | 500 to 5000 |  |  |  | 11 |  | 
Nc1ncccc1C(=O)OCc1ccn2nc(-c3ccc(F)cc3)c(-c3ccncc3)c2c1 [Example 16, [2-(4-Fluorophenyl)-3-(4-pyridinyl)pyrazolo[1,5-a]pyridin-5-yl]methyl 2-aminonicotinate] | < 500 | < 500 |  |  |  |  | > 50000 | 
Fc1ccc(-c2nn3ccccc3c2-c2ccnc(NCc3ccc(Cl)cc3)c2)cc1 [Example 31, N-(4-Chlorobenzyl)-4-[2-(4-fluorophenyl)pyrazolo[1,5-a]pyridin-3-yl]-2-pyridinamine] |  | < 500 |  |  |  | 42 |  | 
Fc1ccc(-c2nn3ccccc3c2-c2ccnc(NCc3cccnc3)c2)cc1 [Example 37, 4-[2-(4-Fluorophenyl)pyrazolo[1,5-a]pyridin-3-yl]-N-(3-pyridinylmethyl)-2-pyridinamine] | < 500 | < 500 |  |  |  |  | 5000 to 50000 | 
Fc1ccc(-c2nn3ccccc3c2-c2ccnc(NCc3ccccn3)n2)cc1 [Example 82, 4-[2-(4-Fluorophenyl)pyrazolo[1,5-a]pyridin-3-yl]-N-(2-pyridinylmethyl)-2-pyrimidinamine] |  |  | < 500 | < 500 |  |  |  | 87

The next lines start with results.

IC50 (p38 kinase; [5]) [nM] | IC50 ([2]; Table 7, LPS stimulation) [nM] | IC50 (p38 kinase; [6]) [nM] | IC50 ([2]; Table 8, LPS stimulation) [nM] | IC50 [4] [nM] | Structure (SMILES) | inhibition in vivo at 30 mg/kg ([1]; Table 7, LPS challenge) [%] | IC50 at 72 h [3] [nM] | inhibition in vivo at 30 mg/kg ([1]; Table 8, LPS challenge) [%]
 |  | < 500 | < 500 |  | CSc1nccc(-c2c(-c3ccc(F)cc3)nn3ccccc23)n1 [Example 57, 2-(4-Fluorophenyl)-3-(4-(2-methylthio)pyrimidinyl)pyrazolo[1,5-a]-pyridine] |  |  | 56
 |  | < 500 | < 500 |  | CCCCNc1nccc(-c2c(-c3ccc(F)cc3)nn3ccccc23)n1 [Example 60, N-Butyl-4-[2-(4-fluorophenyl)pyrazolo[1,5-a]pyridin-3-yl]-2-pyrimidin-amine] |  |  | 88
 |  | < 500 | < 500 |  | Nc1nccc(-c2c(-c3ccc(F)cc3)nn3ccccc23)n1 [Example 64, 4-[2-(4-Fluorophenyl)pyrazolo[1,5-a]pyridin-3-yl]-2-pyrimidinamine] |  |  | 62
 |  | < 500 | < 500 | < 500 | Fc1ccc(-c2nn3cc(C(F)(F)F)ccc3c2-c2ccnc(NC3CC3)n2)cc1 [Example 68, N-Cyclopropyl-4-[2-(4-fluorophenyl)-6-trifluoromethylpyrazolo[1,5-a]pyridin-3-yl]-2-pyrimidinamine] |  |  | 24
 |  | < 500 | < 500 |  | CC(C)Nc1nccc(-c2c(-c3ccc(F)cc3)nn3cc(C(F)(F)F)ccc23)n1 [Example 69, 4-[2-(4-Fluorophenyl)-6-trifluoromethylpyrazolo[1,5-a]pyridin-3-yl]-N-(2-propyl)-2-pyrimidinamine] |  |  | 45
 |  | < 500 | < 500 | < 500 | N#Cc1ccc2c(-c3ccnc(NC4CC4)n3)c(-c3ccc(F)cc3)nn2c1 [Example 73, N-Cyclopropyl-4-[6-cyano-2-(4-fluorophenyl)pyrazolo[1,5-a]pyridin-3-yl]-2-pyrimidinamine] |  |  | 52
 |  |  | < 500 | < 500 | NC(=O)c1ccc2c(-c3ccnc(NC4CC4)n3)c(-c3ccc(F)cc3)nn2c1 [Example 75, 2-(4-Fluorophenyl)-3-(4-(2-cyclopropylamino)pyrimidinyl)-6-pyrazolo-[1,5-a]pyridinylcarboxamide] |  |  | 90
